Where “and” joins values, the source holds several entries; their conditions need not be identical. Equal entries are not always repeated. Where two headings read alike, the source gives them in different places.
What was measured:
HEK-293T cells = test: Cytotoxicity, MTT assay; format: cell-based, human; set-up: key to cell viability, mean: % viability = OD / OD of untreated control
Procedure: (§1) HeLa cells were seeded on flat-bottomed 96-well plates (5000 cells per well) and incubated at 37 °C overnight. Varying concentrations of P-CyPt, Pt^IVNPs or CDDP (0, 1, 2, 5, 10, 20, 30, 50, 100, and 200 μM) in DMEM medium (100 μL) were added. Cells were either incubated for 48 h, or firstly incubated with these three compounds for 2 h, washed with PBS and then incubated with refreshed blank DMEM medium for another 48 h. Then, 3-(4,5)-dimethylthiahiazo (-z-y1)−3,5-di-phenytetrazoliumromide (MTT, 50 μL, 1 mg /mL in PBS) was added into each well. The cells were kept at 37 °C for 4 h, and the solution in each well was carefully removed, followed by addition of dimethyl sulfoxide (DMSO, 150 μL). The absorbance (OD) at 490 nm in each well was acquired on the microplate reader (Tcan). The absorbance of non-treated blank cells (OD control) was used as the control. The percentage of cell viability was calculated by dividing OD to the OD control. […]
(§2) Supplementary Table 4. The IC50 (μM) value of different Pt drugs toward HeLa, HepG2 and HEK-293T cells.a
(§3) Compounds Condition IC50 (μM) HeLa HepG2 HEK-293T […]
(§4) a The IC50 values were measured by the MTT assay. Values denote mean ± s.d. (n = 3 independent experiments). b Cells were incubated with varying concentrations of CDDP, P-CyPt or PtIVNPs for […]
(§5) c Cells were incubated with varying concentrations of CDDP, P-CyPt or PtIVNPs for 2 h, and the mediums were removed, washed with PBS. Blank culture mediums were added, and the cells were kept incubation for another 48 h.

HepG2 cells = test: Cytotoxicity, MTT assay; format: cell-based, human; set-up: key to cell viability, mean: % viability = OD / OD of untreated control
Procedure: as §1, §2, §3, §4, §5

HeLa cells = test: Cytotoxicity, MTT assay; format: cell-based, human; set-up: key to cell viability, mean: % viability = OD / OD of untreated control
Procedure: as §1, §2, §3, §4, §5

[1] = system: supercoiled pBR322 plasmid DNA; test: Ability to break DNA double strand (agarose gel electrophoresis); format: biochemical; conditions: 100 μM, 37 °C, 16 h
Procedure: Evaluation of the ability to break DNA double strand
by different species of Pt compounds. (a) Agarose gel electrophoresis of supercoiled
pBR322 plasmid DNA (10 ng/μL) after incubating with indicated conditions.
represents the linear DNA marker ladder (500-12000 bp); Lane i: DNA; Lane ii: DNA
+ GSH (2 mM); Lane iii: DNA + CDDP (100 μM); Lane iv: DNA + CDDP (100 μM)
+ GSH (2 mM); Lane v: DNA + P-CyPt (100 μM); Lane vi: DNA + P-CyPt (100 μM)
+ GSH (2 mM), Lane vii: DNA +P-CyPt (100 μM) + ALP (500 U/L), Lane viii: DNA
+P-CyPt (100 μM) + ALP (500 U/L) +GSH (2 mM); (b) Agarose gel electrophoresis
of supercoiled pBR322 plasmid DNA (20 ng/μL) after incubating with varying
concentrations of P-CyPt (0, 1, 2, 5, 10, 20, 50 and 100 μM) respectively) plus ALP
(500 U/L), followed by incubation with GSH (2 mM) in Tris buffer at 37 °C for 16 h.
One representative experiment out of two is shown.

[NH2][Pt]([NH2])([Cl])[Cl] [CDDP, cisplatin]
IC50 (HEK-293T cells; HEK-293T, 2+48 h, individual samples, read-out: IC50-2+48h): > 200 µM
IC50 (HEK-293T cells; HEK-293T, 2+48 h, mean of 3 samples, read-out: IC50-2+48h): > 200 µM
cell viability, mean (HEK-293T cells; Supplementary Fig. 23 (c), concentration 1 μM): 95.9542
cell viability, mean (HEK-293T cells; Supplementary Fig. 23 (c), concentration 2 μM): 90.0454
cell viability, mean (HEK-293T cells; Supplementary Fig. 23 (c), concentration 5 μM): 78.4742
cell viability, mean (HEK-293T cells; Supplementary Fig. 23 (c), concentration 10 μM): 63.7251
cell viability, mean (HEK-293T cells; Supplementary Fig. 23 (c), concentration 20 μM): 47.669
cell viability, mean (HEK-293T cells; Supplementary Fig. 23 (c), concentration 30 μM): 34.929
cell viability, mean (HEK-293T cells; Supplementary Fig. 23 (c), concentration 50 μM): 24.7568
cell viability, mean (HEK-293T cells; Supplementary Fig. 23 (c), concentration 100 μM): 14.7932
cell viability, mean (HEK-293T cells; Supplementary Fig. 23 (c), concentration 200 μM): 8.255
IC50 (HEK-293T cells; Supplementary Fig. 23 (c), read-out: IC50): 17.4 µM
cell viability, mean (HEK-293T cells; Supplementary Fig. 24 (c), concentration 1 μM): 98.6071
cell viability, mean (HEK-293T cells; Supplementary Fig. 24 (c), concentration 2 μM): 97.4354
cell viability, mean (HEK-293T cells; Supplementary Fig. 24 (c), concentration 5 μM): 96.6584
cell viability, mean (HEK-293T cells; Supplementary Fig. 24 (c), concentration 10 μM): 94.4248
cell viability, mean (HEK-293T cells; Supplementary Fig. 24 (c), concentration 20 μM): 94.1486
cell viability, mean (HEK-293T cells; Supplementary Fig. 24 (c), concentration 30 μM): 93.57
cell viability, mean (HEK-293T cells; Supplementary Fig. 24 (c), concentration 50 μM): 92.6006
cell viability, mean (HEK-293T cells; Supplementary Fig. 24 (c), concentration 100 μM): 91.2991
cell viability, mean (HEK-293T cells; Supplementary Fig. 24 (c), concentration 200 μM): 85.8671
IC50 (HEK-293T cells; Supplementary Fig. 24 (c), read-out: IC50): > 200 µM
IC50 (HEK-293T cells; incubated 2 h, then blank medium 48 h, MTT, read-out: IC50 HEK-293T): > 200 µM
IC50 (HEK-293T cells; incubated 48 h, MTT, read-out: IC50 HEK-293T): 17.4 ± 1.05 µM
IC50 (HepG2 cells; HepG-2, 2+48 h, individual samples, read-out: IC50-2+48h): > 200 µM
IC50 (HepG2 cells; HepG-2, 2+48 h, mean of 3 samples, read-out: IC50-2+48h): > 200 µM
cell viability, mean (HepG2 cells; Supplementary Fig. 23 (b), concentration 1 μM): 95.3204
cell viability, mean (HepG2 cells; Supplementary Fig. 23 (b), concentration 2 μM): 89.9797
cell viability, mean (HepG2 cells; Supplementary Fig. 23 (b), concentration 5 μM): 77.7747
cell viability, mean (HepG2 cells; Supplementary Fig. 23 (b), concentration 10 μM): 61.9896
cell viability, mean (HepG2 cells; Supplementary Fig. 23 (b), concentration 20 μM): 45.1643
cell viability, mean (HepG2 cells; Supplementary Fig. 23 (b), concentration 30 μM): 34.2775
cell viability, mean (HepG2 cells; Supplementary Fig. 23 (b), concentration 50 μM): 23.521
cell viability, mean (HepG2 cells; Supplementary Fig. 23 (b), concentration 100 μM): 12.914
cell viability, mean (HepG2 cells; Supplementary Fig. 23 (b), concentration 200 μM): 8.323
IC50 (HepG2 cells; Supplementary Fig. 23 (b), read-out: IC50): 16.3 µM
cell viability, mean (HepG2 cells; Supplementary Fig. 24 (b), concentration 1 μM): 97.7401
cell viability, mean (HepG2 cells; Supplementary Fig. 24 (b), concentration 2 μM): 96.3386
cell viability, mean (HepG2 cells; Supplementary Fig. 24 (b), concentration 5 μM): 94.9498
cell viability, mean (HepG2 cells; Supplementary Fig. 24 (b), concentration 10 μM): 92.0343
cell viability, mean (HepG2 cells; Supplementary Fig. 24 (b), concentration 20 μM): 89.3937
cell viability, mean (HepG2 cells; Supplementary Fig. 24 (b), concentration 30 μM): 84.3715
cell viability, mean (HepG2 cells; Supplementary Fig. 24 (b), concentration 50 μM): 79.6906
cell viability, mean (HepG2 cells; Supplementary Fig. 24 (b), concentration 100 μM): 74.3564
cell viability, mean (HepG2 cells; Supplementary Fig. 24 (b), concentration 200 μM): 60.8897
IC50 (HepG2 cells; Supplementary Fig. 24 (b), read-out: IC50): > 200 µM
IC50 (HepG2 cells; incubated 2 h, then blank medium 48 h, MTT, read-out: IC50 HepG2): > 200 µM
IC50 (HepG2 cells; incubated 48 h, MTT, read-out: IC50 HepG2): 16.3 ± 1.69 µM
cell viability, mean (HeLa cells; Supplementary Fig. 23 (a), concentration 1 μM): 94.4173
cell viability, mean (HeLa cells; Supplementary Fig. 23 (a), concentration 2 μM): 90.2597
cell viability, mean (HeLa cells; Supplementary Fig. 23 (a), concentration 5 μM): 78.7193
cell viability, mean (HeLa cells; Supplementary Fig. 23 (a), concentration 10 μM): 62.7353
cell viability, mean (HeLa cells; Supplementary Fig. 23 (a), concentration 20 μM): 41.6693
cell viability, mean (HeLa cells; Supplementary Fig. 23 (a), concentration 30 μM): 27.22
cell viability, mean (HeLa cells; Supplementary Fig. 23 (a), concentration 50 μM): 19.0133
cell viability, mean (HeLa cells; Supplementary Fig. 23 (a), concentration 100 μM): 10.56
cell viability, mean (HeLa cells; Supplementary Fig. 23 (a), concentration 200 μM): 6.51
IC50 (HeLa cells; Supplementary Fig. 23 (a), read-out: IC50): 14.5 µM
cell viability, mean (HeLa cells; Supplementary Fig. 24 (a), concentration 1 μM): 98.8285
cell viability, mean (HeLa cells; Supplementary Fig. 24 (a), concentration 2 μM): 97.2876
cell viability, mean (HeLa cells; Supplementary Fig. 24 (a), concentration 5 μM): 95.6072
cell viability, mean (HeLa cells; Supplementary Fig. 24 (a), concentration 10 μM): 92.7687
cell viability, mean (HeLa cells; Supplementary Fig. 24 (a), concentration 20 μM): 89.3445
cell viability, mean (HeLa cells; Supplementary Fig. 24 (a), concentration 30 μM): 83.6169
cell viability, mean (HeLa cells; Supplementary Fig. 24 (a), concentration 50 μM): 75.0853
cell viability, mean (HeLa cells; Supplementary Fig. 24 (a), concentration 100 μM): 65.2268
cell viability, mean (HeLa cells; Supplementary Fig. 24 (a), concentration 200 μM): 49.73
IC50 (HeLa cells; Supplementary Fig. 24 (a), read-out: IC50): 178 µM
IC50 (HeLa cells; incubated 2 h, then blank medium 48 h, MTT, read-out: IC50 HeLa): 178 µM and > 150 µM
IC50 (HeLa cells; incubated 48 h, MTT, read-out: IC50 HeLa): 14.5 ± 1.6 µM
effect on supercoiled pBR322 DNA ([1]; plus GSH (2 mM)): prevent its binding with the DNA double strand
effect on supercoiled pBR322 DNA ([1]; without GSH): cannot obviously relax or break
